From patent US8748601B2, “Selective serine/threonine kinase inhibitors” (The Regents of the University of California, priority 2003, dated 2014) come the findings set out here.

In test [1] the target is T1, Rsk2 CTD (Homo sapiens, UniProt P51812).
T1 construct: We tested the halomethylketones against the Rsk2 CTD by adapting an in vitro kinase assay; made in house
As to the kind of experiment: Rsk2 CTD in vitro kinase assay, wild type. It counts as biochemical. As to conditions: read-out: IC50 for RSK2. The text has this: We tested the halomethylketones against the Rsk2 CTD by adapting an in vitro kinase assay developed by Chrestensen and Sturgill, J, Biol. Chem. 277:27733 (2002).

In test [2] the test system is Rsk. As to the kind of experiment: Inhibition of RSK by fmk-pa (click chemistry, PMA-stimulated HEK-293 cells). It counts as cell-based. As to conditions: FIG. 9. As to the method: Click reactions were performed as previously described by Speers et al., “Profiling enzyme activities in vivo using click chemistry methods”. Chem Biol 11, 535-46 (2004). Briefly, RSK2 CTD (30 nM) pretreated with the indicated concentrations of fmk-pa, or lysates from fmk-pa-pretreated cells were incubated with TAMRA-N3 or biotin-N3 ([…]), TCEP (1 mM), CuSO4 (1 mM), and TBAT ([…]) in PBS [pH 7.4] containing 1% SDS for 1 h at room temperature.
(§1) Confluent HEK-293 cells in 12-well plates were deprived of serum for 2 h and subsequently treated with the indicated concentrations of inhibitors for 1 h at 37° C. After stimulation with PMA ([…]) for 30 min, cells were washed with cold PBS and harvested in either PBS lysis buffer (FIG. 9c) or hypertonic lysis buffer (FIG. 10). Click chemistry was performed with TAMRA-N3 in lysates from cells treated with fmk-pa. Proteins were analyzed by in-gel fluorescence scanning or Western blotting.
RSK2 CTD was treated with the indicated concentrations of fmk-pa for 1 h followed by […] fmk-BODIPY for 1 h. After click conjugation with TAMRA-N3 (see Methods), proteins were resolved by 10% SDS-PAGE and detected by sequential in-gel fluorescence scanning using filters specific for TAMRA and BODIPY. […] Proteins were resolved by 10% SDS-PAGE and detected by in-gel fluorescence scanning (left) and Coomassie blue staining (right).

For test [3], the system named is rpS6 Ser235/236 phosphorylation. Kind of test: PMA-stimulated rpS6 Ser235/236 phosphorylation in HEK-293 cells. As to conditions: 300 nM fmk-pa together with rapamycin, HEK-293, PMA. It counts as cell-based. The procedure:
as §1
Serum-starved HEK-293 cells were treated with the indicated concentrations of rapamycin in the absence (left lanes) or presence (right lanes) of 300 nM fmk-pa for 1 h and stimulated with PMA (100 ng/mL) for 30 min. Proteins were resolved by 10% SDS-PAGE and detected by Western blotting with antibodies to phospho-Ser235/236 rpS6, phospho-Ser386 RSK, and total RSK2. […] Percent rpS6 Ser235/236 phosphorylation was determined by quantification of Western blots (e.g., FIG. 3a) relative to DMSO controls using ImageJ. Data represent mean±s.e.m. from 3 independent experiments.

Test [4] has as its system RSK. Kind of test: RSK modification by fmk-pa in primary mouse macrophages (click chemistry). It counts as cell-based. To be noted: pretreated for 1 h, LPS-stimulated. As to the method: Confluent macrophages in 12-well plates were incubated in DMEM supplemented with 20 mM Hepes [pH 7.4] and 0.5% FBS for […] prior to treatment with the indicated concentrations of fmk-pa for 1 h at 37° C. After stimulation with either PMA ([…]) or LPS ([…]) for 30 min, cells were washed with cold PBS and harvested in PBS lysis buffer. Click chemistry was performed with TAMRA-N3 and proteins were subsequently analyzed by in-gel fluorescence scanning or Western blotting.
FIG. 11. Fmk-pa and click chemistry reveal the existence of a CTD-independent pathway for RSK Ser386 phosphorylation. […] Macrophages were cultured in 0.5% serum for 20 h and subsequently treated with the indicated concentrations of fmk-pa for 1 h. Cells were stimulated with either PMA (100 ng/mL) or LPS (1 mg/mL) for 30 min and harvested in PBS. Proteins were resolved by 10% SDS-PAGE and detected by Western blotting with antibodies to phospho-Ser386 RSK and total RSK2. […] Data represent mean±s.e.m. from 3 independent experiments. […] Proteins were resolved by 10% SDS-PAGE and detected by in-gel fluorescence scanning. […] Eluted proteins were resolved by 10% SDS-PAGE and detected by Western blotting with streptavidin-HRP or antibodies to RSK1, RSK2, and phospho-Ser386 RSK.

For orientation: IC50 means the point on the concentration scale where inhibition reaches its midpoint.

T1 sequence (P51812 422-679 limits assumed): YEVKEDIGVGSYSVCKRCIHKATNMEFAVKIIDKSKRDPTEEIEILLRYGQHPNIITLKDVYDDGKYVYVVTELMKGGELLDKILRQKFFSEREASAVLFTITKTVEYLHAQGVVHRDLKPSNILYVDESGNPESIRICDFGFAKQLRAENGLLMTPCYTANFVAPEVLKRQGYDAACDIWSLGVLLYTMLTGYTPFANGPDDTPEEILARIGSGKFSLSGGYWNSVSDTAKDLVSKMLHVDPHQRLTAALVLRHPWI

For the compound `C#CCNCCCn1c(C(=O)CF)c(-c2ccc(C)cc2)c2c(N)ncnc21` [propargylamine-fmk 18], the IC50 in test [1] is under 1 µM. Besides, the “Inhibition of RSK” value in test [2] was “irreversible, selective, and potent inhibition”. Besides, in test [3], the “Inhibition of rpS6 phosphorylation” value is listed as “additive inhibition”. The “RSK modification in intact macrophages” value in test [4] is given as “saturable RSK modification”.
